Measured values as given in US20040261961A1, “Wood treatment solution and process for improving the preservation of wood” (priority 2001, published 2004).
Read-outs that look alike come from different tables or passages of the source.

Assays:
rot fungi = details: closed and humid space containing rot fungi; potassium formate dissolved in water
Procedure: Next, a test was performed in which a piece of wood was impregnated with potassium formate. This and an untreated wood specimen were placed in a closed and humid space containing rot fungi.

[1] = board kept several days in strong potassium formate solution; buried in garden plot from summer to following summer
Text: A board specimen was kept for several days in a strong potassium formate solution. After impregnation, the board was in summer buried in a garden plot together with untreated board taken from the same board specimen.

Gloeophyllum trabeum = tested on: Gloeophyllum trabeum
Procedure: (§1) The tests were carried out by using test specimens made from spruce or pine wood. The size of specimens made of pine was approx. 20×15×2.4 cm^3 and respectively the size of the specimens made from spruce was approx. 20×12×7.2 cm^3. One half of the wood specimens were subjected to a heat treatment at 190° C. […] One half of the specimens were subjected to no heat treatment. The wood specimens were measured and weighed before the chemical treatment. Neither chemical nor heat treatment was carried out on the reference specimens that were used in the accelerated rotting tests described below.
(§2) The temperature of the solution was 40-50° C. In the vessel there prevailed a pressure of approx. 150 kPa (1.5 bar), by means of which the solution was “forced” into the wood. The treatment time was 2 h. After the chemical treatment the wood specimens were dried in an incubator overnight at 80-90° C.
(§3) In the next phase the specimens treated above were sent to a rot fungus test. European standard EN 113 was applied in carrying out the test. The wood was exposed to conditions as rigorous as possible with respect to decay: temperature was approx. 30° C. and humidity 100%, and bad rot fungi such as Poria placenta, Gloeophyllum trabeum and Coniophora puteana had been introduced into the testing space (culture flask). These fungi are present in all rotting objects. The test lasted for 4 months. […] The rotting of such wood should in an accelerated rotting test be such that the weight loss is at least 20% with each fungus species. The specimens were weighed before the beginning of the test.
(§4) The results of the accelerated rotting tests for spruce are shown in Tables 2-4 and for pine in Tables 5-7.

Coniophora puteana = tested on: Coniophora puteana
Procedure: as §1, §2, §3, §4

Poria placenta = tested on: Poria placenta
Procedure: as §1, §2, §3, §4

[2] = tested on: Poria placenta, Gloeophyllum trabeum and Coniophora puteana; details: Ca formate treatment in addition to heat treatment
Procedure: as §3, §4

| Structure (SMILES) | Decay activity in the experimental space (rot fungi) | Decay of impregnated board after burial [1] | Rot resistance class according to standard EN 350-1994 (Gloeophyllum trabeum; treated pine) | Rot resistance class according to standard EN 350-1994 (Gloeophyllum trabeum; treated spruce) | Rot resistance class according to standard EN 350-1994 (Coniophora puteana; treated pine) | Rot resistance class according to standard EN 350-1994 (Coniophora puteana; treated spruce) | Rot resistance class according to standard EN 350-1994 (Poria placenta; treated pine) | Rot resistance class according to standard EN 350-1994 (Poria placenta; treated spruce) | Rotting of wood (overall conclusion) [2] |
| --- | --- | --- | --- | --- | --- | --- | --- | --- | --- |
| O=C[O-].[K+] [potassium formate] | inhibited all decay activity | without any decay |  |  |  |  |  |  |  |
| O=C[O-].O=C[O-].[Ca+2] [Ca formate, calcium formate] |  |  | Class 1 | Class 1 | Class 1 | Class 1 | Class 3 | Class 3 | prevented almost completely |
